According to US20070099887A1, “Photodynamic therapy for the treatment of prostatic conditions” (priority 2003, published 2007):

Test system: prostate
Assay: Photodynamic therapy of the canine prostate after intraprostatic injection of QLT0074 and transurethral 690 nm light
Type: in vivo, dogs
Procedure: Eight mature, intact, mixed-breed dogs were premedicated with butorphanol (0.4 mg per kilogram of body weight), acepromazine (0.1 mg/kg), and atropine (0.4 mg/kg), all given by intramuscular injection. Anesthesia was induced with intravenous thiopental sodium (8 mg per 0.4536 kilograms of body weight) and maintained with inhaled isoflurane and oxygen (dosage as required for anesthetic effect). QLT0074 for injection (A-EA6 in U.S. Pat. No. 5,929,105) was reconstituted with Water for Injection to give a stock concentration of 2.0 mg/ml and then diluted with 5% Dextrose in water to a concentration 0.2 mg/ml. Injections of the drug were then delivered to the prostate using a commercially available transurethral injection device (InjecTx™, San Jose, Calif., USA). Two injections of 0.5 ml were given to each left lobe of the prostate and 2 injections of 1.0 ml were given to each right lobe of the prostate. The activation-energy delivery device used comprised: • a cylindrical fibre optic with a 200 μm diameter core, a 25 mm long diffuser, and a power rating of 175 mW/cm (maximum power load, 437.5 mW), • a reflective-cap fibre-centering balloon catheter with a 20 mm treatment window supplied with a guidewire for positioning the device in the urethra, and • a 3 W 690 nm red-light diode laser (AOC, South Plainfield, N.J., USA). The treatment assembly was positioned in the urethra using ultrasonic guidance. Ultrasound was also used to position the needles for four […] intraprostatic injections (two per lobe separated by longitudinally by 1 cm). Each injection was at a depth of between 8 and 12 mm into the prostate. The activation energy was delivered 15 minutes after the last injection. A dose of either 25 J/cm^2, 50 J/cm^2, or 100 J/cm^2 was delivered. […] After seven days the dogs were euthanased and the prostates were harvested.

[1] = prostates harvested after seven days, QLT0074 0.2 mg/ml intraprostatic, injection depth 8-12 mm, 25, 50 or 100 J/cm^2

Bowel, bladder, and prostate sizes (dogs euthanased after seven days, QLT0074 0.2 mg/ml intraprostatic, 25, 50 or 100 J/cm^2): within normal ranges | Clinical appearance of the dogs during observation (mature intact mixed-breed dogs, QLT0074 0.2 mg/ml, 2 x 0.5 ml left lobe and 2 x 1.0 ml right lobe, 690 nm light 25, 50 or 100 J/cm^2 15 minutes after last injection, observed for one week): clinically normal
SMILES: C=Cc1c(C)c2cc3nc(cc4[nH]c(cc5nc(cc1[nH]2)C(C)=C5CCC(=O)OCCO)c(CCC(=O)OCCO)c4C)[C@@]1(C)C3=CC=C(C(=O)OC)[C@H]1C(=O)OC [QLT0074, Lemuteporfin]
PDT-associated damage in the urethra [1]: no significant PDT-associated damage | PDT-associated tissue damage in the target tissue (prostates) [1]: evidence of PDT-associated tissue damage in the target tissue
